Earlier results, collected in US20080113973A1, “Compositions and methods involving the combination of a thromboxane A2 receptor antagonist and an inhibitor of cyclooxygenase-2” (B.M.R.A. Corporation B.V., priority 2002, published 2008).

Which “Time of peak plasma concentrations” value (after oral administration) does the source give for `CS(=O)(=O)c1ccc(C2=C(c3ccccc3)C(=O)OC2)cc1` [Rofecoxib] here?
Its value is 2 to 3 h.

What about the half life (in vivo) of the same molecule?
The half life was “about 17 hours”.
